Measurements reported in patent publication US6838439B2, “Heterocytes as inhibitors of leucocyte adhesion and as VLA-4 antagonists” (Aventis Pharma Deutschland GmbH, priority 1996, dated 2005).

Molecular target: T1, interaction between VCAM-1 and VLA-4 (VLA-4 on human U937 cells / hVCAM-1(1-3)-IgG) (Homo sapiens, UniProt P05556+P13612)
T1 construct: offered in their natural form as surface molecules on human U937 cells; host or cells: U937 cells carry the endogenous VLA-4; The partner hVCAM-1(1-3)-IgG was made in house in transfected COS cells (ATCC CRL1651) and used as culture supernatant
T1 sequence (P13612 34-1032): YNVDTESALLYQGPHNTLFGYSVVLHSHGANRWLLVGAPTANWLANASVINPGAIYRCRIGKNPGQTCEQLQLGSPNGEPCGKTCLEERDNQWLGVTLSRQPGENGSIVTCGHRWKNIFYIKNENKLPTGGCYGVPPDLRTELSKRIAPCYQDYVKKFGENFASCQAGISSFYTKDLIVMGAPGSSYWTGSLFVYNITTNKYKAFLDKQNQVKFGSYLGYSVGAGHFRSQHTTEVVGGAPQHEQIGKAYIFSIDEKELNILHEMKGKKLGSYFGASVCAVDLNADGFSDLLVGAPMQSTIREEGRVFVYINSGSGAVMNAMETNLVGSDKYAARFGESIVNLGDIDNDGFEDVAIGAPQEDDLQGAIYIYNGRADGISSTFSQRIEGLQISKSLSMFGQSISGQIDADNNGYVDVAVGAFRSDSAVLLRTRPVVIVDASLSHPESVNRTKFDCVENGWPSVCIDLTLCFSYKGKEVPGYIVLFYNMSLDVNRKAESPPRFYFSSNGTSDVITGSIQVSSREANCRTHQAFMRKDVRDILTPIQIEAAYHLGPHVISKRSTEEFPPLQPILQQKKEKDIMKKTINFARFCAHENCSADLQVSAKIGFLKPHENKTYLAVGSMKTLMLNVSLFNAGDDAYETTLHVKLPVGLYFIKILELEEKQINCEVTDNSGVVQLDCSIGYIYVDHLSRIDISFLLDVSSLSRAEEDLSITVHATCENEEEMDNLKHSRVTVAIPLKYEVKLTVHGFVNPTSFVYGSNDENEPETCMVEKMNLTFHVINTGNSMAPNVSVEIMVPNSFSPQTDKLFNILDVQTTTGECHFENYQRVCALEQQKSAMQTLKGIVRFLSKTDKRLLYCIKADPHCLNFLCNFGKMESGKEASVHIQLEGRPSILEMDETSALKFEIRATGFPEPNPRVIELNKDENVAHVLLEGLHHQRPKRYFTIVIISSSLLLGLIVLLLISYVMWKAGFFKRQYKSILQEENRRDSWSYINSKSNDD
T1 sequence (P05556 21-798): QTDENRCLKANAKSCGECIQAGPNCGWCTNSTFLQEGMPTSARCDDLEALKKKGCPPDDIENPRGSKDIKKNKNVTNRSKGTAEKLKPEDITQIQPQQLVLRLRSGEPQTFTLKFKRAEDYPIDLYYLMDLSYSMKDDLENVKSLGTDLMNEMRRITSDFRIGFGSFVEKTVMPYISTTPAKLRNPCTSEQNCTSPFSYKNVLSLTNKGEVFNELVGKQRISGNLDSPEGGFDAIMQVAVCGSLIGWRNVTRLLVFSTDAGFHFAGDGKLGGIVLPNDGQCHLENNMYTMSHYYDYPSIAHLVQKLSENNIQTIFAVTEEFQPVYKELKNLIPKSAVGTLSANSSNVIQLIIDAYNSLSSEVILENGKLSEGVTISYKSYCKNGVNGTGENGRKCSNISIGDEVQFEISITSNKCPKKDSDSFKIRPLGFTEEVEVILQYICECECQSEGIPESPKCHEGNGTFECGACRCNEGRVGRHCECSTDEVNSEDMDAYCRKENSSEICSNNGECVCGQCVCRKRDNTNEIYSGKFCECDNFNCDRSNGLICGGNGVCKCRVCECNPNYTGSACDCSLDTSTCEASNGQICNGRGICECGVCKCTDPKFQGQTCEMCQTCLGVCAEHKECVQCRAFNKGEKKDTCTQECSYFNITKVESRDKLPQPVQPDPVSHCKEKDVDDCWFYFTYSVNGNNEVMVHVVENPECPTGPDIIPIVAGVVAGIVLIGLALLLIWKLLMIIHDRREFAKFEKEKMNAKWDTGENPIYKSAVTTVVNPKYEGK
Assay: U937/VCAM-1 cell adhesion test: adhesion of U937 cells to hVCAM-1(1-3)-IgG
Assay type: cell-based
Details: inhibition of adhesion of U937 cells (ATCC CRL 1593) to hVCAM-1(1-3)-IgG
Excerpt: As a test method for the activity of the compounds of the formula Ib on the interaction between VCAM-1 and VLA-4, an assay is used which is specific for this interaction. The cellular binding components, i.e. the VLA-4-integrins, are offered in their natural form as surface molecules on human U937 cells (ATCC CRL 1593), which belong to the group of leucocytes. As specific binding components, recombinant soluble fusion proteins prepared by genetic engineering and consisting of the extracytoplasmic domains of human VCAM-1 and the constant region of a human immunoglobulin of the subclass IgG1 are used.
Assay for the measurement of the adhesion of U937 cells (ATCC CRL 1593) to hVCAM-1(1-3)-IgG
1. Preparation of human VCAM-1(1-3)-IgG and human CD4-IgG
A genetic construct for the expression of the extracellular domains of human VCAM-1 was employed, associated with the genetic sequence of the heavy chain of human immunoglobulin IgG-1 (hinge, CH2 and CH3 regions), from Dr. Brian Seed, Massachusetts General Hospital, Boston, USA. The soluble fusion protein hVCAM-1(1-3)-IgG contained the three amino-terminal extracellular immunoglobulin-like domains of human VCAM-1 (Damle and Aruffo, Proc. Natl. Acad. Sci. USA 1991, 88, 6403). CD4-IgG (Zettlmeissl et al., DNA and Cell Biology 1990, 9, 347) served as a fusion protein for negative controls. The recombinant proteins were expressed as soluble proteins after DEAE/dextran-mediated DNA-transfection in COS cells (ATCC CRL1651) according to standard procedures (Ausubel et al., Current protocols in molecular biology, John Wiley & Sons, Inc., 1994).
2. Assay for measurement of the adhesion of U937 cells to hVCAM-1(1-3)-IgG
2.1 96-well microtiter test plates (Nunc Maxisorb) were incubated at room temperature for 1 hour with 100 μl/well of a goat-anti-human IgG antibody solution (10 μg/ml in 50 mM Tris, pH 9.5). After removing the antibody solution, washing was carried out once with PBS.
2.2 150 μl/well of a blocking buffer (1% BSA in PBS) was incubated on the plates at room temperature for 0.5 hours. After removing the blocking buffer, washing was carried out once with PBS.
2.3 100 μl per well of a cell culture supernatant of transfected COS cells were incubated on the plates at room temperature for 1.5 hours. The COS cells were transfected with a plasmid which codes for the three N-terminal immunoglobulin-like domains of VCAM-1, coupled to the Fc part of human IgG1 (hVCAM-1(1-3)-IgG). The content of hVCAM-1(1-3)-IgG was about 0.5-1 μg/ml. After removing the culture supernatant, washing was carried out once with PBS.
2.4 The plates were incubated at room temperature for 20 minutes with 100 μl/well of Fc receptor blocking buffer (1 mg/ml of γ-globulin, 100 mM NaCl, 100 μM MgCl2, 100 μM MnCl2, 100 μM CaCl2, 1 mg/ml BSA in 50 mM HEPES, pH 7.5). After removing the Fc receptor blocking buffer, washing was carried out once with PBS.
2.5 20 μl of binding buffer (100 μM NaCl, 100 μM MgCl2, 100 μM MnCl2, 100 μM CaCl2, 1 mg/ml BSA in 50 mM HEPES, pH 7.5), were initially introduced, the substances to be tested were added in 10 μl of binding buffer and the mixture was incubated for 20 minutes. As controls, antibodies against VCAM-1 (BBT, No. BBA6) and against VLA-4 (Immunotech, No. 0764) were used.
2.6 U937 cells were incubated in Fc receptor blocking buffer for 20 minutes and then pipetted in at a concentration of 1×10^6/ml and in an amount of 100 μl per well ([…]).
2.7 The plates were slowly immersed at an angle of 45° in stop buffer (100 mM NaCl, 100 μM MgCl2, 100 μM MnCl2, 100 μM CaCl2 in 25 mM Tris, pH 7.5) and shaken off. The process was repeated.
2.8 50 μl/well of a dye solution (16.7 μg/ml of Hoechst dye 33258, 4% formaldehyde, 0.5% Triton X-100 in PBS) were then incubated on the plates for 15 minutes.
2.9 The plates were shaken off and slowly immersed at an angle of 45° in stop buffer (100 mM NaCl, 100 μM MgCl2, 100 μM MnCl2, 100 μM CaCl2 in 25 mM tris, pH 7.5). The process was repeated. […]

| IC50 [µM] | SMILES |
| --- | --- |
| 2.8 | Cc1ccccc1NC(=O)Nc1ccc(C2(C)C(=O)N(CC(=O)N[C@@H](CC(=O)O)C(=O)N[C@H](C(=O)O)c3ccccc3)C(=O)N2Cc2ccccc2)cc1 (stereo partly drawn) [Example 3, ((R,S)-3-Benzyl-4-methyl-4-(4-(3-(2-methylphenyl)ureido)phenyl)-2,5-dioxoimidazolidin-1-yl)acetyl-L-aspartyl-L-phenylglycine] |
| 30 | CC1(c2ccc(C#N)cc2)C(=O)N(CC(=O)N[C@@H](CC(=O)O)C(=O)N[C@H](C(=O)O)c2ccccc2)C(=O)N1Cc1ccc2ccccc2c1 (stereo partly shown) [Example 1] |
| 27.7 | CC1(c2ccc([N+](=O)[O-])cc2)C(=O)N(CC(=O)N[C@@H](CC(=O)O)C(=O)N[C@H](C(=O)O)c2ccccc2)C(=O)N1Cc1ccccc1 (stereo partly drawn) [Example 2, ((R,S)-3 -Benzyl-4-methyl-4-(4-nitrophenyl)-2,5-dioxoimidazolidin-1-yl)acetyl-L-aspartyl-L-phenylglycine] |
| 14 | CC1(c2ccc(CNC(=O)NCc3ccccc3)cc2)C(=O)N(CC(=O)N[C@@H](CC(=O)O)C(=O)N[C@H](C(=O)O)c2ccccc2)C(=O)N1Cc1ccccc1 (stereo partly drawn) [Example 4, ((R,S)-3-Benzyl-4-(4-(3-benzylureidomethyl)phenyl)-4-methyl-2,5-dioxoimidazolidin-1-yl)acetyl-L-aspartyl-L-phenylglycine] |
| 9 | CC1(c2ccc(CNC(=O)Nc3ccccc3)cc2)C(=O)N(CC(=O)N[C@@H](CC(=O)O)C(=O)N[C@H](C(=O)O)c2ccccc2)C(=O)N1Cc1ccccc1 (mixture of isomers) [Example 5, ((RS)-3-Benzyl-4-methyl-4-(4-(3-phenylureidomethyl)phenyl)-2,5-dioxoimidazolidin-1-yl)acetyl-L-aspartyl-L-phenylglycine] |
| 6.5 | Cc1ccccc1NC(=O)NCc1ccc(C2(C)C(=O)N(CC(=O)N[C@@H](CC(=O)O)C(=O)N[C@H](C(=O)O)c3ccccc3)C(=O)N2Cc2ccccc2)cc1 (stereo partly drawn) [Example 6, ((R,S)-3 -Benzyl-4-methyl-4-(4-(3-(2-methylphenyl)ureidomethyl)phenyl)-2,5-dioxoimidazolidin-1-yl)acetyl-L-aspartyl-L-phenylglycine] |
| 20 | CC1(c2ccc(CNC(=O)NCCc3ccccc3)cc2)C(=O)N(CC(=O)N[C@@H](CC(=O)O)C(=O)N[C@H](C(=O)O)c2ccccc2)C(=O)N1Cc1ccccc1 (stereo partly drawn) [Example 7, ((R,S)-3-Benzyl-4-methyl-4-(4-(3-(2-phenylethyl)ureidomethyl)phenyl)-2,5-dioxoimidazolidin-1-yl)acetyl-L-aspartyl-L-phenylglycine] |
